Laboratory results published in US10189881B2, “MPS peptides and use thereof” (The Regents of the University of California, priority 2013, dated 2019).

Columns and labels:
CL1-0 cells = experiment: NBD-labeled peptide binding to live cells (confocal microscopy); type: cell-based, human; conditions: NBD-labeled peptides; b53 versus D-Mut, b70 versus SEQ ID NO: 9
Excerpt: FIGS. 28A-28C show MPS peptide binding to live cells. (A) Peptide sequences showing substitution of serine residues in MPS peptide (SEQ ID NO: 9). The serine residues of MPS peptide were replaced either by adding 4 aspartic acids (SEQ ID NO: 14), which are negatively charged and result in making the final peptide less positive, or by adding 4 alanines (SEQ ID NO: 10), which increased membrane affinity. Both the MPS and alanines-substituted (A-Mut) MPS peptides are highly positive charged and interact electrostatically with PIP2 on the phospholipid membrane. In contrast, electrostatic interaction with cell membrane is decreased in aspartates-substituted (D-Mut) MPS peptide (Gambhir, A. et al. (2004) Biophys. J. 86:2188-2207; Rusu, L. et al. (2004) Biophys J. 87:1044-1053; Glaser, M. et al. (1996) J. Biol. Chem. 271:26187-26193; Ellena, J.F. et al. (2003) Biophys. J. 85:2442-2448; McLaughlin, S. et al. (2005) Nature 438:605-611). Figure discloses “MH” domain as SEQ ID NO: 42. […] MPS peptide, D-Mut, and A-Mut MPS peptide were labeled with NBD (4-Chloro-7-Nitrobenz-2-Oxa-1,3-Diazole) dye. After purification of peptides, CL1-0 cells were treated with various NBD-labeled peptides and then subjected to DAPI staining. The NBD-labeled peptide (green) and nucleus counter-stain (blue) were visualized via confocal laser-scanning microscopy. […]

cancer cells = experiment: Anti-cancer activity of alanine-substituted MPS (method not given)
[1] = test system: MARCKS phosphorylation (Ser159/163); experiment: Western blot of MARCKS phosphorylation in peptide-treated cells; type: cell-based, human; conditions: alanine-substituted peptide
Description: The levels of MARCKS phosphorylation in chemoresistant cancer cell lines after 24 hours of MPS or mutant (Mut) peptide treatment. Lysates form 100 μM MPS-or Mut peptide-treated H1650 or H1975cells were subjected to immunoblotting. The sequences of MARCKS MPS peptide consisted of amino acids 152 to 176 from the wild-type protein (SEQ ID NO: 9). The sequences of mutated MPS peptide (Mut) (SEQ ID NO: 14) had the replacement of serine residues (S) by aspartate (D) and are unable to be recognized by PKC. The underline represents the PIP2 binding site.
FIGS. 13A-13G show MPS peptide suppresses cancer cell proliferation and also induces apoptosis in these cells through direct downregulation of MARCKS activation. (A) Determination of MARCKS phosphorylation levels after 24 hours of MPS peptide treatment. Lysates from 1-100 μM MPS peptide-treated H1975 cells were subjected to western blot analysis. (B) Levels of PIP3 in drug resistant cancer cell lines after MPS peptide treatment. Cells were treated with 10, 50 or 100 μM MPS peptide. After 24 hours of treatment, PIP3 lipids were extracted from these cells and analyzed by a PIP3 ELISA kit. *P<0.05 compared with untreated cells. (C) Downregulation of AKT phosphorylation by MPS peptide treatment, but not by Mut peptide. Cells were treated with 100 μM MPS or Mut peptide for 24 hours. Lysates were immunoblotted with the indicated antibodies. (D) Cell viability analysis of six cancer cell lines and human bronchial epithelial cells (HBE1) upon MPS treatment. Cells were incubated with various concentrations of MPS peptide for 72 hours and then subjected to MTS assays. Polylysine served as a peptide control. n=4, *P<0.05 compared with untreated cells (Con). (E) Cells were treated with the indicated concentrations of MPS peptide and colonies were counted after 10 days of treatment using crystal violet staining (F) MPS treatment augments cell death. […] The percentages of apoptotic cells were quantified by flow cytometry (top), and presented as mean±SD of three experiments (bottom). *, P<0.05 versus untreated cells (Con). […]

For “KKKKKRFAFKKAFKLAGFAFKKNKK [SEQ ID NO: 10, alanines-substituted MPS peptide]”, which Peptide-cell interaction (CL1-0 cells) is on record?
Its Peptide-cell interaction is “greater peptide-cell interaction”.

What about the “Anti-cancer activity compared to MPS peptide of SEQ ID NO: 9” value (cancer cells) of the same sequence?
Its value is “better anti-cancer activity”.

What about the “Phospho-MARCKS levels in cancer cells” value [1] of the same sequence?
The value was “reduce phospho-MARCKS levels”.
